According to patent US20030114402A1, “Modulators of DNA cytosine-5 methyltransferase and methods for use thereof” (The Regents of the University of California, priority 1997, published 2003):
“Also recorded” adds a separate entry of the source. Values belong to the molecule of their own block, whether it stands above or below them. [5mC] = 5-methylcytosine

Columns and labels:
DCMTase [1] = target: T1, DCMTase (Mus musculus, UniProt P13864); assay: Dead-end inhibition of poly(dI.dC:dI.dC) methylation by single-stranded DNA; assay type: biochemical
T1 construct: DCMTase was purified from mouse erythroleukemia cells as previously described; endogenous in cells; host or cells: mouse erythroleukemia (MEL) cells; enzyme purified from them
T1 sequence (P13864 whole entry): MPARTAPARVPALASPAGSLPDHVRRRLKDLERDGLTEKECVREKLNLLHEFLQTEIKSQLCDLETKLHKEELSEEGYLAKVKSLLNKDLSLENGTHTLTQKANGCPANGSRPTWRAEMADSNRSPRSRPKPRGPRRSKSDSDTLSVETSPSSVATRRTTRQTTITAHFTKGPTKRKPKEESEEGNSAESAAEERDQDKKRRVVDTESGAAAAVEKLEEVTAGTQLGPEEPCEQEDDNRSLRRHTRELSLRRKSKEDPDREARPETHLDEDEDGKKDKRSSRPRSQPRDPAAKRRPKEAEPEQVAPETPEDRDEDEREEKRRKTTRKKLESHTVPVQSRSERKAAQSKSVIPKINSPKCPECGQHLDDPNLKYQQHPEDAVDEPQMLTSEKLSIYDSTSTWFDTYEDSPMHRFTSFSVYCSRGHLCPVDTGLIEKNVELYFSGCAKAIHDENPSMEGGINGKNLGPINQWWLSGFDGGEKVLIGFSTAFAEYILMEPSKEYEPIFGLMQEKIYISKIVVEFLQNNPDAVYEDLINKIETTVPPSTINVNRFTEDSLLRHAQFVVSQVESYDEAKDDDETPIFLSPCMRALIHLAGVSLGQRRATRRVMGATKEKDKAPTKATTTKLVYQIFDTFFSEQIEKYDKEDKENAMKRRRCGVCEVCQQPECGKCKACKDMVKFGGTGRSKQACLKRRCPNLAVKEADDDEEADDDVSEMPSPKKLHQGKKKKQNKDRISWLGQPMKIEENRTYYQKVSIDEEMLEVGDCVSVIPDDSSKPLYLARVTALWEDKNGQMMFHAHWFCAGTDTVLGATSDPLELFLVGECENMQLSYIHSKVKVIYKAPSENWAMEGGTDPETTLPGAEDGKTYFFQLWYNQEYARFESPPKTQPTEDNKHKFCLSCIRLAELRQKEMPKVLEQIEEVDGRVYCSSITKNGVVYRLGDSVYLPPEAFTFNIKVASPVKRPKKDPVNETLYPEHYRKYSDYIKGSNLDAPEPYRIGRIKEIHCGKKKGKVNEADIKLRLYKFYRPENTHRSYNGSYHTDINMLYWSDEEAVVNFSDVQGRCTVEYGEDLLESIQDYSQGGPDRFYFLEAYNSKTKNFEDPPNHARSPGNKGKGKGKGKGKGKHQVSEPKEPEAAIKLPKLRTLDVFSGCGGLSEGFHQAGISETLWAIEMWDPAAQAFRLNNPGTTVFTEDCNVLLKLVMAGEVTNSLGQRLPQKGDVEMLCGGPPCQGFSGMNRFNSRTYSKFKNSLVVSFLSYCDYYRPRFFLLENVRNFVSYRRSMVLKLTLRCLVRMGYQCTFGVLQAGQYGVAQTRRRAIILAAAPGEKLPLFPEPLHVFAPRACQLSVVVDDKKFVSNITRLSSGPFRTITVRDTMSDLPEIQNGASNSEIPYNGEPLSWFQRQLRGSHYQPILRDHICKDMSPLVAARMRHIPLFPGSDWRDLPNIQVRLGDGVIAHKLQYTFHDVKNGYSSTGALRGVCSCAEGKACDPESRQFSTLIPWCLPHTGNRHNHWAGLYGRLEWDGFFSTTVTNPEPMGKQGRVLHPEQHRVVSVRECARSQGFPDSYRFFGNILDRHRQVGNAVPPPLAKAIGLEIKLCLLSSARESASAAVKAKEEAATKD
Experimental: (§1) After preincubation at room temperature for up to 10 minutes, reactions were initiated by the addition of poly(dI.dC:dI.dC) and, if indicated, inhibitor DNA or reaction products. […] Single-stranded DNA was heated to 90° C. and quick cooled on ice, prior to initiation of the reaction. Freeze-thawed DNA produced equivalent results. Incubations were at 37° C. for 60 minutes. The poly(dI.dC:dI.dC) concentrations were 2.0, 4.0, 8.0, 16, 35, 80, 160, 250, 400, 700 and 1000 pM. In some experiments, GC-box a/b was the substrate, using 100 nM DCMTase and DNA concentrations of 0.20, 0.40, 1.0, 2.0, 4.0, 8.0, 15, 23 and 35 μM. The reaction was stopped after 60 minutes by transferring 20 μL of the reaction onto a DE 81 filter paper that was processed as described (Flynn et al., 1996). The radioactivity above the background, determined from assays without added poly(dI.dC:dI.dC), was converted to initial velocities and expressed as picomoles of methyl groups transferred to poly(dI.dC:dI.dC) per hour and plotted in double reciprocal form.
The poly(dI.dC:dI.dC) concentrations were 10, 13, 20, 40 and 100 pM. The GC-box b concentrations were: diamonds, 0; circles, 0.75 μM; triangles, 1.5 μM; squares, 5.0 μM. Incubations were at 37° C. for 60 minutes.
The poly(dI.dC:dI.dC) concentrations were 1.5, 3.0, 7.5, 15 and 20 pM. The GC-box b^MET concentrations were: squares, 0; circles, 10 nM; diamonds. 20 nM; triangles, 40 nM. Incubations were at 37° C. for 60 minutes.
The GC-box b^MET concentrations were: squares, 0; circles, 20 nM; diamonds, 40 nM; triangles, 80 nM. Incubations were at 37° C. for 60 minutes.
(§2) The Michaelis-Menton equation was used for studies into DNA length contributions to catalysis using KaliedaGraph 2.1.2 (Synergy Software). For mechanistic determinations, the nomenclature used is that of Cleland, W. W., 1963a. Biochimi. Biophysi. Acta 67:104-137. All steady-state data were analyzed using regression analyses of the appropriate initial velocity equation, listed below, using the Cleland programs (Cleland, W. W., 1979, Statistical analysis of enzyme kinetic data. Methods in Enzymol. 63:103-138).
(§3) The algorithms perform a non-linear least squares fit to the entire data set. Mechanistic determinations were made by comparison of the sigma values associated with the fit to each equation. The standard errors associated with fitted parameters and graphical analysis of the experimental data scattered around the calculated best fit lines were also considered in making an assignment.

DCMTase [2] = target: T1, DCMTase; settings: previous kinetic study (Flynn et al., 1996); cited from earlier work
[3] = test system: mouse erythroleukemia (MEL) cells; assay: Anti-proliferative effects on MEL cells; assay type: cell-based; settings: for growth rate of MEL cells: incubation with inhibitor, concentration dependent
DCMTase [4] = target: T1, DCMTase; assay: Product inhibition studies, steady-state; assay type: biochemical; design: key to Type of Inhibition: C: competitive; NC: noncompetitive; UC: uncompetitive inhibition
Experimental: as §1
The AdoHcy concentrations were: squares, 0; diamonds, 0.75 ,μM; circles, 1.5 μM; triangles, 3.0 μM; notched squares, 6.0 μM. Incubations were at 37° C. for 60 minutes.
For the double reciprocal plot of AdoHcy product inhibition with varying poly(dI.dC:dI.dC) concentrations (FIGS. 17A-C), reactions contained 20 nM DCMTase in 100 mM Tris pH 8.0, 10 mM EDTA, 10 mM DTT, 200 μg/mL BSA. Incubations were at 37° C. for 60 minutes. The poly(dI.dC:dI.dC) concentrations were 2.5, 5.0, 10, and 20 pM. The AdoHcy concentrations were: squares, 0; diamonds, 15 μM; circles, 30 μM.
The poly(dId^mC:dId^mC) concentrations were: squares, 0; diamonds, 5.0 pM; circles, 10 pM; triangles, 20 pM. Incubations were at 37° C. for 60 minutes. Experimental data are shown scattered around lines derived from a fit to equation 5 for noncompetitive inhibition.
200 μg/mL BSA. Incubations were at 37° C. for 60 minutes. The poly(dI.dC:dI.dC) concentrations were 20, 40, 80, 120 and 160 pM. The poly(dId^mC:dId^mC) concentrations were: squares, 0; triangles, 34 pM; circles, 45 pM; diamonds, 68, notched squares, 90 pM. Experimental data are shown scattered around lines. In FIG. 19A, lines are derived from a fit to equation 4 for competitive inhibition. In FIG. 19B, lines are derived from a fit to equation 5 for noncompetitive inhibition. Both fittings are not acceptable.
as §2, §3

[5] = target: DNA cytosine-5 methyltransferase (DCMTase, Dnmt1) (Mus musculus) (UniProt P13864); assay: EMSA; settings: pooled generation-5 sequences vs starting pool
Sequence of DNA cytosine-5 methyltransferase (DCMTase, Dnmt1) (Mus musculus) (P13864 whole entry): as above

[6] = target: DNA cytosine-5 methyltransferase (DCMTase, Dnmt1) (Mus musculus) (UniProt P13864); assay: inhibition
[7] = target: T2, DNA cytosine-5 methyltransferase (DCMTase, Dnmt1) (Mus musculus, UniProt P13864 P13864:1-1620); assay: EMSA; unit printed as mM (text indicates micromolar); settings: tags: none, purified from mouse erythroleukemia (MEL) cells
T2 sequence (P13864 whole entry, one chain of several): as the sequence (P13864 whole entry) above
Experimental: Gel mobility shift assays (GMSA) were performed with minor revisions to the original procedures (Fried, M., & Crothers, D. M., 1981, Equilibria and kinetics of the lac repressor-operator interactions by polyacrylamide gel electrophoresis, Nucleic Acids Res. 9:6505-6525; Garner, M. M. & Revzin, A., 1981, A gel electrophoresis method for quantifying the binding proteins to specific DNA regions: applications to components of the Escherichia coli lactose operon regulatory system, Nucleic Acids Res. 13:3047-3060). All reactions were done in 100 mM Hepes pH 7.4, 10 mM EDTA, 10 mM DTT, […], 5% glycerol using the indicated P-labeled DNA and DCMTase concentrations, incubated on ice for 5 minutes and loaded on a 1×TBE(89 mM Tris-HCl pH 8.3, 89 mM boric acid, 2 mM EDTA), 6% polyacrylamide gel. Electrophoresis was done at 250 V, 9 mA for 2 hours at 4° C. and the dried gel was exposed to film overnight. The reaction conditions for buffer, temperature, incubation time, cofactor addition and gel composition have all been optimized. Only slightly better complex resolution was obtained under the listed conditions compared to a 10 minute incubation at 37° C. prior to gel loading at room temperature and containing either cofactor S-adenosyl-L-methionine, product S-adenosyl-L-homocysteine, or the AdoMet analog sinefungin. Hepes reaction buffer at pH 7.4 produced sharper banding than Tris-HCl at pH 8.0. […] Subsequent assays used a limiting and constant enzyme concentration with varying DNA concentrations.
(§4) Steady-state kinetic analyses of the DCMTase with the same 30 base-pair DNA substrates used in these studies indicate that Kₘ^DNA is 1000- to 50,000-fold higher (Flynn, J., et al., 1996, Murine DNA cytosine-C5 methyltransferase: Pre-steady- and steady-state kinetic analyses with regulatory DNA sequences, Biochemistry 35:7308-7315) than the DNA concentrations used to generate FIG. 2 and used by Reale et al, 1995, supra. […] Therefore, the stability of protein:DNA was determined by keeping the enzyme at a constant concentration (100 nM) and varying the amount of added DNA (Dubey & Roberts, 1992, supra).

[8] = target: T2, DNA cytosine-5 methyltransferase …; assay: EMSA; unit printed as mM (text indicates micromolar); 100 nM enzyme, DNA varied; Hepes pH 7.4, 10 mM EDTA, on ice, no AdoMet; settings: tags: none; purified from mouse erythroleukemia (MEL) cells; label: 32P
Experimental: (§5) Gel mobility shift assays (GMSA) were performed with minor revisions to the original procedures (Fried, M., & Crothers, D. M., 1981, Equilibria and kinetics of the lac repressor-operator interactions by polyacrylamide gel electrophoresis, Nucleic Acids Res. 9:6505-6525; Garner, M. M. & Revzin, A., 1981, A gel electrophoresis method for quantifying the binding proteins to specific DNA regions: applications to components of the Escherichia coli lactose operon regulatory system, Nucleic Acids Res. 13:3047-3060). […]
as §4

[9] = target: T2, DNA cytosine-5 methyltransferase …; assay: EMSA; unit printed as mM (text indicates micromolar); at limit of resolution; settings: tags: none; purified from mouse erythroleukemia (MEL) cells
Experimental: as §5, §4

Molecule: 5′-CTGGATCCTTGCCCCGCCCCTTGAATTCCC-3′ (DNA, backbone not given here) [GC-box b]
Mode of Inhibition (DCMTase [1]): Noncompetitive with poly(dIdC:dIdC) | alpha factor, Kii/Kis (DCMTase [1]): 1.9 | Ki (DCMTase [1]; poly(dI.dC:dI.dC) varied, noncompetitive fit, 15 μM AdoMet, read-out: Kii): 6800 nM | Ki (DCMTase [1]; poly(dI.dC:dI.dC) varied, noncompetitive fit, 15 μM AdoMet, read-out: Kis): 3600 nM | enzyme activity with single-stranded substrate (DCMTase [2]): no detectable enzyme activity

Molecule: 5′-CTGGATCCTTGCCC^mCGCCCCTTGAATTCCC-3′ (DNA CTGGATCCTTGCCCCGCCCCTTGAATTCCC; DNA, [5mC] at 15, backbone not given here) [GC-box b^MET]
Mode of Inhibition (DCMTase [1]): Uncompetitive with poly(dIdC:dIdC); also recorded: Competitive with Adomet | Ki (DCMTase [1]; AdoMet varied, constant 50 pM poly(dI.dC:dI.dC), competitive fit, read-out: Inhibition Constant, slope derived (Kis), equation 4): 25 nM | Ki (DCMTase [1]; Kii and Kis, read-out: the two inhibition constants in agreement): ~20 nM | lower affinity for free enzyme in the absence of poly(dI.dC:dI.dC) (DCMTase [1]; compared with Example 1 binding): 120 fold | Ki (DCMTase [1]; poly(dI.dC:dI.dC) varied, uncompetitive fit, 10 μM AdoMet, read-out: Inhibition Constant, intercept derived Kii, equation 6): 20 nM | Ki (DCMTase [1]; read-out: KI, dissociation constant from the DCMTase:poly(dI.dC:dI.dC) complex): 2.5 nM | lower inhibition constant (increased inhibition) versus GC-box b (DCMTase [1]; single 5-mC substitution): 200 fold | growth rate of MEL cells [3]: slows down the growth rate

Molecule: 5′-GGGAATTCAAGGGGCGGGGCAAGGATCCAG-3′ (DNA, backbone not given here) [GC-box a]
enzyme activity with single-stranded substrate (DCMTase [2]): no detectable enzyme activity

Ki (DCMTase [4]; varied AdoMet, fixed poly(dIdC:dIdC), competitive, read-out: Inhibition Constant Kis): 1400 nM | Ki (DCMTase [4]; varied poly(dI.dC:dI.dC), low AdoMet concentrations, read-out: Kii, noncompetitive model): 2500 nM | Ki (DCMTase [4]; varied poly(dI.dC:dI.dC), low AdoMet concentrations, read-out: Kii, uncompetitive model): 2000 nM | Ki (DCMTase [4]; varied poly(dI.dC:dI.dC), low AdoMet concentrations, read-out: Kis, noncompetitive model): 63000 nM | Type of Inhibition (DCMTase [4]; varied substrate AdoMet, fixed substrate IC): C | Type of Inhibition (DCMTase [4]; varied substrate IC, fixed substrate AdoMet): NC/UC
Molecule: Nc1ncnc2c1ncn2[C@@H]1O[C@H](CSCC[C@H](N)C(=O)O)[C@@H](O)[C@H]1O [AdoHcy, S-adenosyl homocysteine]

Molecule: GC-box p^MET: SEQ ID NO:10 with a phosphorothioate backbone (DNA CTGGATCCTTGCCCCGCCCCTTGAATTCCC; listed as DNA, chemistry not fully specified)
occurrence of large multi-nucleate cells among regularly sized cells ([3]; five days of incubation, 10 micromolar): about one in fifty | growth rate of MEL cells [3]: slows down the growth rate

Molecule: GGGAATTCATGGATCCTAAANNNNNNNNNNNNCGNNNNNNNNNNNNTTTCAAGCTTGTGATTCCC (double strand) [generation-5 selected pool]
binding signal (fold tighter than starting pool) [5]: 2

Molecule: poly(dI.dC:dI.dC), average 6250 or 5000 bp
Ki ([6]; substrate inhibition, 6250 bp, apparent Km 5.5 +/- 0.9 pM, true Km 36 +/- 5 pM): 1 nM

Molecule: poly(dI.dmC:dI.dmC), fully methylated
Ki ([6]; 5mC at all M.SssI sites, Kis, noncompetitive product inhibition vs AdoMet, Kii 30 +/- 12 pM): 0.0053 nM

B1: CRE a/b (dsDNA)
DNA 1: GGGAATTCAAATGACGTCAAAAGGATCCAG
DNA 2: CTGGATCCTTTTGACGTCATTTGAATTCCC
Kd ([7]; label: 32P): 1500 nM

B2: CRE aMET/b (dsDNA)
DNA 1: B1 DNA 1
DNA 2: B1 DNA 2
modifications: 5mC at position 15 of strand a (hemi-methylated CpG)
Kd ([7]; label: 32P): 1000 nM

B3: GC-box a/bMET (dsDNA)
DNA 1: GGGAATTCAAGGGGCGGGGCAAGGATCCAG
DNA 2: CTGGATCCTTGCCCCGCCCCTTGAATTCCC
modifications: 5mC at position 15 of strand b (hemi-methylated CpG)
Kd [8]: 360 nM

Molecule: GGGAATTCAAATGACGTCAAAAGGATCCAG (ssDNA) [CRE a]
Kd [9]: > 50000 nM

Molecule: CTGGATCCTTTTGACGTCATTTGAATTCCC (ssDNA) [CRE b]
Kd [9]: > 50000 nM

Molecule: GGGAATTCAAGGGGCGGGGCAAGGATCCAG (ssDNA) [GC-box a]
Kd [7]: 1200 nM
